According to patent EP3345917A1, “ANTIPROTOZOAL COMPOUNDS” (Bacoba AG, priority 2017, dated 2018):
Non-standard residues stand in square brackets, D forms with d. Residues, ends and D or L forms follow the SMILES beside them. *: point of attachment. Hexenoyl(2E,4S-Me) = CC[C@H](C)/C=C/C(=O)*; Leu(3R-OH) = CC(C)[C@@H](O)[C@H](N)C(=O)O; NH((S)CH(Me)CH2NMe2) = C[C@@H](CN(C)C)N*; NH(2-morpholinoethyl) = C(CN1CCOCC1)N*; Cyclopentanecarbonyl = O=C(C1CCCC1)*; Gly(octyl) = CCCCCCCC[C@H](N)C(=O)O; Hexanoyl = CCCCCC(=O)*; Aib = CC(C)(N)C(=O)O; βAla = NCCC(=O)O

Assays:
[1] = test system: Trypanosoma brucei rhodesiense (STIB 900 strain); test: Alamar Blue assay against Trypanosoma brucei rhodesiense grown in axenic medium; assay type: cell-based; conditions: In vitro inhibition, read-out: T.b.rhod.
How it was run: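 Alamar Blue-based IC50 determination, in triplicate, on axenically grown STIB 900 trypanosomes. Melarsoprol included as reference.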

[2] = test system: Trypanosoma cruzi trypomastigote forms (Tulahuen strain); test: Intracellular Trypanosoma cruzi assay in L6-cells, beta-galactosidase/CPRG readout; assay type: cell-based; conditions: In vitro inhibition, read-out: T.cruzi.
How it was run: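 Readout was β-galactosidase cleavage of CPRG, read photometrically at 540 nm after 2–6 h colour development, giving IC50 values. Parasites: LacZ-expressing Tulahuen C2C4 strain grown in rat L6 myoblasts; run in triplicate.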

[3] = test system: Axenically grown Leishmania donovani amastigotes (strain MHOM/ET/67/L82); test: Axenic Leishmania donovani amastigote resazurin assay; assay type: cell-based; conditions: In vitro inhibition, read-out: L.don. ax
How it was run: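 IC50 values derive from resazurin fluorescence (ex 536 nm, em 588 nm), expressed relative to the negative control, after 2-4 hours of plate development. Axenic amastigotes of strain MHOM/ET/67/L82 were used; each test run in triplicate.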

[4] = test system: intracellular Leishmania donovani (L.don. InMac); test: Intracellular Leishmania donovani assay (L.don. InMac); assay type: cell-based; conditions: In vitro inhibition
From the text: (§1) Tests were done in triplicate.

Plasmodium falciparum = test: 3H-hypoxanthine incorporation assay against Plasmodium falciparum; assay type: cell-based; conditions: In vitro inhibition, read-out: P.falc NF5
Procedure: as §1
IC50 values were calculated by linear interpolation.

[5] = Cytotoxicity assay on L6-cells (Alamar Blue); conditions: rat, Cytotox L6, Cytotoxicity against rat myoblast cells (L6)
Procedure: Tests were done in triplicate. IC50 values against the parasites as well as cytotoxic effects against rat myoblast (L6-cells) were determined by serial dilution and repeated twice.
After 68 h of incubation under humidified 5% CO2 atmosphere, 10 µl of the Alamar blue marker was added to all wells. The plates were incubated for an additional 2 h. […] The IC50S were calculated by Softmax Pro software (Molecular Devices Cooperation, Sunnyvale, CA). […] Cytotoxicity was measured against rat myoblast cells (Cytotox L6).

Row | Compound | IC50 [1] [nM] | IC50 [2] [nM] | IC50 [3] [nM] | IC50 [4] [nM] | IC50 (Plasmodium falciparum) [nM] | IC50 at 70 h [5] [nM]
1 | CCCCCCCC[C@H](NC(=O)[C@@H]1CCCN1C(=O)/C=C/[C@@H](C)CC)C(=O)N[C@H](C(=O)NC(C)(C)C(=O)N[C@@H](CC(C)C)C(=O)N[C@@H](CC(C)C)C(=O)NC(C)(C)C(=O)NC(C)(C)C(=O)NCCC(=O)NCCN1CCOCC1)[C@H](O)C(C)C [Compound 5569, (2S)-N-[(1S,2R)-2-hydroxy-3-methyl-1-[(1-methyl-1-{[(1S)-3-methyl-1-{[(1S)-3-methyl-1-{[1-methyl-1-({1-methyl-1-[(2-{[2-(morpholin-4-yl)ethyl]carbamoyl}ethyl)carbamoyl]ethyl}carbamoyl)ethyl]carbamoyl}butyl]carbamoyl}butyl]carbamoyl}ethyl)carbamoyl]butyl]-2-{[(2S)-1-[(2E,4S)-4-methylhex-2-enoyl]pyrrolidin-2-yl]formamido}decanamide] ({Hexenoyl(2E,4S-Me)}-P[Gly(octyl)][Leu(3R-OH)][Aib]LL[Aib][Aib][βAla]-{NH(2-morpholinoethyl)}) | 1.7 | 143 | 3.8 | 107 | 17.9 | 2420
2 | CCCCCCCC[C@H](NC(=O)/C=C/[C@@H](C)CC)C(=O)N[C@H](C(=O)NC(C)(C)C(=O)N[C@@H](CC(C)C)C(=O)N[C@@H](CC(C)C)C(=O)NC(C)(C)C(=O)NC(C)(C)C(=O)NCCC(=O)N[C@@H](C)CN(C)C)[C@H](O)C(C)C [Compound 5586, (2S)-N-[(1S,2R)-1-[(1-{[(1S)-1-{[(1S)-1-{[1-({1-[(2-{[(2S)-1-(dimethylamino)propan-2-yl]carbamoyl}ethyl)carbamoyl]-1-methylethyl}carbamoyl)-1-methylethyl]carbamoyl}-3-methylbutyl]carbamoyl}-3-methylbutyl]carbamoyl}-1-methylethyl)carbamoyl]-2-hydroxy-3-methylbutyl]-2-[(2E,4S)-4-methylhex-2-enamido]decanamide] ({Hexenoyl(2E,4S-Me)}-[Gly(octyl)][Leu(3R-OH)][Aib]LL[Aib][Aib][βAla]-{NH((S)CH(Me)CH2NMe2)}) | 6.6 | 108 | 4.7 | 104 | 18.8 | 1150
3 | CCCCCCCC[C@H](NC(=O)[C@@H]1CCCN1C(C)=O)C(=O)N[C@H](C(=O)NC(C)(C)C(=O)N[C@@H](CC(C)C)C(=O)N[C@@H](CC(C)C)C(=O)NC(C)(C)C(=O)NC(C)(C)C(=O)NCCC(=O)N[C@@H](C)CN(C)C)[C@H](O)C(C)C [Compound 5588, (2S)-2-{[(2S)-1-acetylpyrrolidin-2-yl]formamido}-N-[(1S,2R)-1-[(1-{[(1S)-1-{[(1S)-1-{[1-({1-[(2-{[(2S)-1-(dimethylamino)propan-2-yl]carbamoyl}ethyl)carbamoyl]-1-methylethyl}carbamoyl)-1-methylethyl]carbamoyl}-3-methylbutyl]carbamoyl}-3-methylbutyl]carbamoyl}-1-methylethyl)carbamoyl]-2-hydroxy-3-methylbutyl]decanamide] (Ac-P[Gly(octyl)][Leu(3R-OH)][Aib]LL[Aib][Aib][βAla]-{NH((S)CH(Me)CH2NMe2)}) | 6 | 2330 | 4.6 | 463 | 9.6 | 3540
4 | CCCCCCCC[C@H](NC(=O)[C@@H]1CCCN1C(=O)CCCCC)C(=O)N[C@H](C(=O)NC(C)(C)C(=O)N[C@@H](CC(C)C)C(=O)N[C@@H](CC(C)C)C(=O)NC(C)(C)C(=O)NC(C)(C)C(=O)NCCC(=O)N[C@@H](C)CN(C)C)[C@@H](C)O [Compound 5604, (2S)-N-[(1S,2R)-1-[(1-{[(1S)-1-{[(1S)-1-{[1-({1-[(2-{[(2S)-1-(dimethylamino)propan-2-yl]carbamoyl}ethyl)carbamoyl]-1-methylethyl}carbamoyl)-1-methylethyl]carbamoyl}-3-methylbutyl]carbamoyl}-3-methylbutyl]carbamoyl}-1-methylethyl)carbamoyl]-2-hydroxypropyl]-2-{[(2S)-1-hexanoylpyrrolidin-2-yl]formamido}decanamide] (Hexanoyl-P[Gly(octyl)]T[Aib]LL[Aib][Aib][βAla]-{NH((S)CH(Me)CH2NMe2)}) | 0.8 | 426 | 4 | 228 | 3.6 | 1290
5 | CCCCCCCC[C@H](NC(=O)[C@@H]1CCCN1C(=O)CCCCC)C(=O)N[C@@H](CC(C)C)C(=O)NC(C)(C)C(=O)N[C@@H](CC(C)C)C(=O)N[C@@H](CC(C)C)C(=O)NC(C)(C)C(=O)NC(C)(C)C(=O)NCCC(=O)N[C@@H](C)CN(C)C [Compound 5632, (2S)-N-[(1S)-1-[(1-{[(1S)-1-{[(1S)-1-{[1-({1-[(2-{[(2S)-1-(dimethylamino)propan-2-yl]carbamoyl}ethyl)carbamoyl]-1-methylethyl}carbamoyl)-1-methylethyl]carbamoyl}-3-methylbutyl]carbamoyl}-3-methylbutyl]carbamoyl}-1-methylethyl)carbamoyl]-3-methylbutyl]-2-{[(2S)-1-hexanoylpyrrolidin-2-yl]formamido}decanamide] (Hexanoyl-P[Gly(octyl)]L[Aib]LL[Aib][Aib][βAla]-{NH((S)CH(Me)CH2NMe2)}) | 0.4 | 10.2 | 1.3 | 52.1 | 0.1 | 162
6 | CCCCCCCC[C@H](NC(=O)[C@@H]1CCCN1C(C)=O)C(=O)N[C@@H](CC(C)C)C(=O)NC(C)(C)C(=O)N[C@@H](CC(C)C)C(=O)N[C@@H](CC(C)C)C(=O)NC(C)(C)C(=O)NC(C)(C)C(=O)NCCC(=O)N[C@@H](C)CN(C)C [Compound 5638, (2S)-2-{[(2S)-1-acetylpyrrolidin-2-yl]formamido}-N-[(1S)-1-[(1-{[(1S)-1-{[(1S)-1-{[1-({1-[(2-{[(2S)-1-(dimethylamino)propan-2-yl]carbamoyl}ethyl)carbamoyl]-1-methylethyl}carbamoyl)-1-methylethyl]carbamoyl}-3-methylbutyl]carbamoyl}-3-methylbutyl]carbamoyl}-1-methylethyl)carbamoyl]-3-methylbutyl]decanamide] (Ac-P[Gly(octyl)]L[Aib]LL[Aib][Aib][βAla]-{NH((S)CH(Me)CH2NMe2)}) | 0.4 | 98.5 | 7 | 224 | 0.6 | 634
7 | CCCCCCCC[C@H](NC(=O)C1CCCC1)C(=O)N[C@H](C(=O)NC(C)(C)C(=O)N[C@@H](CC(C)C)C(=O)N[C@@H](CC(C)C)C(=O)NC(C)(C)C(=O)NC(C)(C)C(=O)NCCC(=O)N[C@@H](C)CN(C)C)[C@@H](C)O [Compound 5641, (2S)-2-(cyclopentylformamido)-N-[(1S,2R)-1-[(1-{[(1S)-1-{[(1S)-1-{[1-({1-[(2-{[(2S)-1-(dimethylamino)propan-2-yl]carbamoyl}ethyl)carbamoyl]-1-methylethyl}carbamoyl)-1-methylethyl]carbamoyl}-3-methylbutyl]carbamoyl}-3-methylbutyl]carbamoyl}-1-methylethyl)carbamoyl]-2-hydroxypropyl]decanamide] (Cyclopentanecarbonyl-[Gly(octyl)]T[Aib]LL[Aib][Aib][βAla]-{NH((S)CH(Me)CH2NMe2)}) | 3.9 | 1400 | 8.2 | 862 | 72.9 | 1670
